Where two headings read alike, the source gives them in different places.
How the values were obtained:
RVFV strain MP12 [1] = assay: microbe, parasite or virus in culture; format: cell-based, Rift Valley fever virus; conditions: for EC50: Rift Valley fever virus, HeLa, 24 h
RVFV = assay: microbe, parasite or virus in culture; format: cell-based; conditions: Rift Valley fever virus, SAEC, 24 h
VEEV (1CSH3) = assay: microbe, parasite or virus in culture; format: cell-based, Venezuelan equine encephalomyelitis virus; conditions: for EC50: Venezuelan equine encephalitis virus, HeLa, 20 h
EBOV (Zaire) = assay: microbe, parasite or virus in culture; format: cell-based, Zaire ebolavirus
MARV (Ci67) = assay: microbe, parasite or virus in culture; format: cell-based, Lake Victoria marburgvirus
LASV (Josiah) = assay: microbe, parasite or virus in culture; format: cell-based, Lassa virus; conditions: for EC50: Mammarenavirus lassaense, HeLa, 24 h
[2] = system: Golgi complex in HeLa-G cells; assay: cells; format: cell-based, human; conditions: for EC50: Homo sapiens, 12 h, read-out: GC50 (effective concentration of compound that disrupts 50% of the Golgi complexes)
RVFV strain MP12 [3] = format: cell-based, Rift Valley fever virus
in vitro [4] = conditions: human
in vitro [5] = conditions: human; remark: listed apart in the source
RVFV RNA = format: cell-based, Rift Valley fever virus
[6] = system: tubulin / microtubule organization in HeLa cells; format: cell-based, human
[7] = system: HeLa cells expressing H3-pS10
[8] = Orthomarburgvirus marburgense, HeLa, 48 h

SMILES | EC50 (RVFV strain MP12 [1]) | EC50 (RVFV) | EC50 (VEEV (1CSH3)) | EC50 (EBOV (Zaire); Zaire ebolavirus, HeLa, 48 h) | EC50 (MARV (Ci67); [8]) | EC50 (LASV (Josiah)) | %GNL (lowest % of Golgi number achievable at the compound's highest concentration) [2] | EC50 [2] | reduction of N and Gn expression (RVFV strain MP12 [3]) | time of compound addition PI at which 50% of infection is rescued/recovered (RVFV strain MP12 [3]) | CC50 (in vitro [5]) | further results
CC1(C(=O)NCc2ccccc2)Cn2c(cc3occc32)C(=O)N1Cc1ccc(Cl)cc1 (centres unmarked) [C795-0925] | 14.4 µM | 12.3 µM | 10.2 µM | 46.6 µM | 57.4 µM | 81.4 µM | 63.4% | 36.9 µM | significantly reduced | 9 h | 111 µM | antiviral activity against RVFV in secondary screening (heat map) (RVFV strain MP12 [1]): highest activity; antiviral activity against VEEV in secondary screening (heat map) (VEEV (1CSH3)): highest activity; antiviral activity against EBOV in secondary screening (heat map) (EBOV (Zaire)): moderate antiviral activity; antiviral activity against MARV in secondary screening (heat map) (MARV (Ci67)): moderate antiviral activity; antiviral activity against LASV in secondary screening (heat map) (LASV (Josiah)): moderate antiviral activity; CC50 (in vitro [4]): 56.7 µM
COc1ccc(CN2C(=O)C(=O)c3cc(C)ccc32)cc1 [D011-2120] | 61.5 µM | 62.4 µM | 41.6 µM | 54.1 µM | 87.1 µM | 46.8 µM | 16.4% | 38.2 µM | ~10% | > 10 h | 98 µM | antiviral activity against RVFV in secondary screening (heat map) (RVFV strain MP12 [1]): moderate activity; antiviral activity against VEEV in secondary screening (heat map) (VEEV (1CSH3)): high activity; antiviral activity against EBOV in secondary screening (heat map) (EBOV (Zaire)): high activity; antiviral activity against MARV in secondary screening (heat map) (MARV (Ci67)): high activity; antiviral activity against LASV in secondary screening (heat map) (LASV (Josiah)): moderate activity; reduction of S-Gn (cell surface exposed Gn) expression (RVFV strain MP12 [3]): approximately 90%; viral RNA accumulation in the supernatants (RVFV RNA): 9%; viral RNA accumulation inside the cells (RVFV RNA): 75%; tubulin ridge value relative to BFA- or mock-treated cells [6]: approximately half; number of cells expressing H3-pS10 (mitotic cells) vs mock-treated [7]: significant increase; concentration above which compound was toxic to the cells ([7]; human): > 25 µM
Cc1ccc(NC(=O)Nc2cc(NC(=O)c3ccc(F)cc3)ccc2N2CCCC2)c(Cl)c1 [F694-1532] | 20 µM | 23.5 µM | 15.2 µM | 118 µM | 143 µM | 80.4 µM | 19.5% | 35.3 µM | significantly reduced | 8 h | 51.3 µM | 
COc1ccccc1CNC(=O)C1c2c(n(C)c3ccccc23)SCC(=O)N1c1ccc(OC)c(OC)c1 (centres unmarked) [G202-0362] | 13.6 µM | 11.9 µM | 48.9 µM | 16 µM | 34 µM |  | 61.2% | 23.7 µM | ~10% | > 10 h |  | EC50 (EBOV (Zaire)): 16.1 µM; EC50 (MARV (Ci67)): 34.1 µM; reduction of S-Gn (cell surface exposed Gn) expression (RVFV strain MP12 [3]): approximately 90%; viral RNA accumulation in the supernatants (RVFV RNA): 28%; viral RNA accumulation inside the cells (RVFV RNA): 95%; toxic effects on the HeLa cells (HeLa cells): no toxic effects; effects on cell division in uninfected cells [7]: no observable effects
Cl.N [NH4Cl, reference compound] |  |  |  |  |  |  |  |  |  |  |  | RVFV infection inhibition when added 2 h PI (RVFV strain MP12 [3]): not at the later time point; RVFV infection inhibition when added at early time points (−2 h or 0 h) (RVFV strain MP12 [3]): inhibited RVFV infection
NC(=O)c1ncn([C@@H]2O[C@H](CO)[C@@H](O)[C@H]2O)n1 [Ribavirin, ribavirin, reference compound] | 27.2 µM | 29.5 µM | 75 µM | 60.1 µM | 82.2 µM | 6.8 µM | 87.2% |  |  |  |  | 
COC(=O)Nc1nc2ccc(C(=O)c3cccs3)cc2[nH]1 [nocodazole, reference compound] |  |  |  |  |  |  |  |  |  |  |  | tubulin ridge value relative to BFA- or mock-treated cells [6]: approximately half; number of cells expressing H3-pS10 (mitotic cells) vs mock-treated [7]: significant increase

Source: publication PMC4140764 (PLoS Neglected Tropical Diseases, 2014)
